{"source": "patent US12245999B2", "about": "“Valproic acid for the treatment or prevention of pathological conditions associated with excess fibrin deposition and/or thrombus formation” (Cereno Scientific AB, priority 2014, dated 2025)", "key": {"[1]": {"system": "PAI-1", "assay": "Intermediate endpoint study in patients with TIA/minor stroke: plasma PAI-1 (ELISA)", "type": "in vivo, human", "details": "20 patients with TIA/minor stroke, 400 mg enteric-coated tablet once daily at 11 pm for 2 weeks", "description": "An intermediate endpoint proof-of-concept study is performed in patients with TIA/minor stroke investigated before and after treatment with Valproic acid. Valproic acid is administrated as an enteric-coated tablet with delayed absorption.\n(§1) The study comprises 20 patients with TIA/minor stroke. Patients are investigated before and after oral treatment with 400 mg valproic acid once time daily at 11 pm for 2 weeks. Plasma PAI-1 levels and plasma concentrations of valproic acid is followed daily during the study period at the following time-points: 3 am, 6 am, 10 am, 16 pm, 22 pm PAI-1 levels are measured by commercially available ELISA-kits (Coaliza PAI-1, Chromogenix AB) and the plasma concentration of valproic acid an metabolites thereof is analyzed according to clinical routine at the Sahlgrenska University laboratory, Gothenburg, Sweden."}, "[2]": {"system": "PAI-1", "assay": "Proof-of-concept cross-over study in patients with a history of myocardial infarction: plasma PAI-1 before and after valproic acid", "type": "in vivo, human", "details": "midmorning, p=0.01; for reduction in circulating plasma PAI-1 levels: 16 male patients with history of myocardial infarction, 500 mg (Ergenyl Retard) twice daily during 28 days on top of ordinary prescription", "description": "(§2) The effects of VPA on PAI-1 were analysed in two different proof-of-concept studies in healthy subjects as well as in patients with manifest atherosclerotic disease. […] PAI-1 plasma levels were measured in the morning at the first day of the study as well as at the end of the treatment period with VPA (see example 2 for details on the PAI-1 analysis).\nIn the second study, 16 non-smoking white male patients, aged 50-80 years with a history of a myocardial infarction were included. On top of their ordinary prescription (beta-blocker, ACE-inhibitor, statin, aspirin) they were treated with valproic acid 500 mg (Ergenyl Retard, Sanofi), twice daily during 28 days.\nas §1"}, "[3]": {"system": "PAI-1", "assay": "In vivo model in mouse: plasma PAI-1", "details": "in vivo model in mouse (unpublished data)"}, "[4]": {"system": "PAI-1", "details": "in vivo model in pig (Svennerholm et al., PLoS One 2014); cited from earlier work"}, "[5]": {"system": "PAI-1", "assay": "Proof-of-concept cross-over study in healthy subjects: plasma PAI-1 before and after valproic acid", "type": "in vivo, human", "details": "500 mg (Ergenyl Retard) twice daily during 14 days, p<0.05", "description": "as §2\nIn the first study, 10 healthy non-smoking white male subjects (with mean BMI of approximately 26), aged 50-70 years were included and treated with valproic acid 500 mg (Ergenyl Retard, Sanofi) twice daily during 14 days.\nas §1"}, "[6]": {"assay": "Clinical outcome study in high-risk patients: recurrent atherothrombotic events", "type": "in vivo, human", "details": "400 mg once daily at 11 pm, long-term, expected", "description": "A clinical outcome study is performed in high-risk patients who have experienced a recent major atherothrombotic cardiovascular event (myocardial infarction or TIA/ischemic stroke) to investigate the preventive effect of valproic acid treatment on the risk for recurrent events. The annual risk for a recurrent atherothrombotic event in the investigated population is estimated to approximately 7%. Patients are randomized in a parallel study design to receive double-blind oral treatment with 400 mg valproic acid (as in Example 2) or placebo once time daily at 11 pm, in addition to optimal conventional treatment. The event rate is monitored by Kaplan-Meyer statistics. The primary efficacy endpoint is the composite measure of either mortality, or non-fatal myocardial infarction or ischemic stroke. The study is event-driven to a total of 180 events."}, "[7]": {"system": "PAI-1", "assay": "In vitro cultured endothelial cells: PAI-1 mRNA / production after VPA treatment", "type": "cell-based"}}, "note": "Where two headings read alike, the source gives them in different places."}
{"smiles": "CCCC(CCC)C(=O)O", "note": "[valproic acid, 2-propylpentanoic acid]", "values": [{"measurement": "plasma PAI-1 levels lowered after the treatment", "setting": "[1]", "value": "approximately 30%"}, {"measurement": "reduction in circulating plasma PAI-1 levels", "setting": "[2]", "value": 45, "unit": "%"}, {"measurement": "reduction in circulating plasma PAI-1 levels", "setting": "[2]; listed as VPA", "value": "about 45%"}, {"measurement": "circulating plasma PAI-1 level after treatment", "setting": "[2]; patients with history of myocardial infarction, 500 mg (Ergenyl Retard) twice daily during 28 days, 19.6 ng/ml before treatment", "value": 11, "unit": "ng/mL"}, {"measurement": "effects on plasma PAI-1", "setting": "[3]", "value": "did not detect any effects"}, {"measurement": "effects on plasma PAI-1", "setting": "[4]", "value": "did not detect any effects"}, {"measurement": "reduction in circulating plasma PAI-1 levels", "setting": "[5]; 10 healthy male subjects, mid-morning vs before treatment", "value": "more than 50%"}, {"measurement": "circulating plasma PAI-1 level after treatment", "setting": "[5]; healthy male subjects, mid-morning, 22.2 ng/ml before treatment", "value": 10.8, "unit": "ng/mL"}, {"measurement": "reduction of risk for recurrent atherothrombotic event", "setting": "[6]; in addition to conventional therapy", "value": "approximately 30%"}, {"measurement": "annual absolute event rate", "setting": "[6]; estimated approximately 7% without treatment", "value": "approximately 5%"}, {"measurement": "PAI-1 mRNA levels after VPA treatment", "setting": "[7]", "value": "did not show a decrease"}, {"measurement": "increase in PAI-1 production", "setting": "[7]; slight but significant", "value": 30, "unit": "%"}]}
